# From patent US20140309300A1, “Bicyclic Labdane Diterpenes for Use in the Treatment of TRPC6 Associated Diseases” (UNIVERSITAET LEIPZIG, priority 2011, published 2014)
# Tests used:
# TRPC6 [1] = target: T1, TRPC6 (Homo sapiens, UniProt Q9Y210); test: Calcium influx (fluo-4 [Ca2+]i) in TRPC6-expressing HEK293 cells; assay type: cell-based; conditions: 0.01 to 20 μM; activated with 50 μM OAG or GPCR agonist mix; FIG. 1
# T1 construct: expressed in transfected cells
# T1 sequence (Q9Y210 1-931): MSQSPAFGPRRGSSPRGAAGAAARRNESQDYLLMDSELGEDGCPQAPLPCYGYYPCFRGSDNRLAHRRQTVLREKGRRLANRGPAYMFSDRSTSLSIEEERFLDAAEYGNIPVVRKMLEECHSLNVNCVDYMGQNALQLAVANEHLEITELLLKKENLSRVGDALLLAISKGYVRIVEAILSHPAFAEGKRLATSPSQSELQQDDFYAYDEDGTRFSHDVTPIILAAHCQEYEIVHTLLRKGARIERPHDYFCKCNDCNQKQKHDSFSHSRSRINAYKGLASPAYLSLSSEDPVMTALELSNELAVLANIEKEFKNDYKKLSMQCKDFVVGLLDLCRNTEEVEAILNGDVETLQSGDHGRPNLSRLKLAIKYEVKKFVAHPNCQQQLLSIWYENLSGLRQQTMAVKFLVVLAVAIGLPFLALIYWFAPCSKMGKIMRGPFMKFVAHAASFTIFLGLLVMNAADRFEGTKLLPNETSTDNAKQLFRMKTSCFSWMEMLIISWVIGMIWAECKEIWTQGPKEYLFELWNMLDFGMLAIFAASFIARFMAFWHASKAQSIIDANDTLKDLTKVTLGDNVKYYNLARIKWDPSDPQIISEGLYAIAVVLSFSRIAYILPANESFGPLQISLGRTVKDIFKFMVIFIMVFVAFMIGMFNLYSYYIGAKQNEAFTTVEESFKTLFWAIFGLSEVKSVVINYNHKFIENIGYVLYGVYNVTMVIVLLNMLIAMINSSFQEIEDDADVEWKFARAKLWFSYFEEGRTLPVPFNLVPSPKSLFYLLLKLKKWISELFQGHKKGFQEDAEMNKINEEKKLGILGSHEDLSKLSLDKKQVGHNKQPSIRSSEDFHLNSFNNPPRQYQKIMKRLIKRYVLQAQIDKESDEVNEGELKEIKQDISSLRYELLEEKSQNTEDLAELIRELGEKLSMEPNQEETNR
# Description: (§1) HEK293 (ATCC CRL-1573) cells were grown in Earle's Minimum Essential Medium (MEM) supplemented with 10 Vol.-% fetal calf serum, 2 mM (mmol/l) L-glutamine, 100 units/ml penicillin and 0.1 mg/ml streptomycin. Cells were seeded in 35-mm culture dishes, grown for 24 h, and transfected at 80% confluence with 2 μg of plasmid DNA encoding a C-terminally YFP-tagged human TRPC6 and 4 μl of Fugene HD reagent (Roche) in 100 μl serum-free medium. To select stably transfected HEKhTRPC6-YFP clones, 1 mg/ml geneticin (G418) was added to the medium. […] To verify functional expression, different clones were isolated and tested by single-cell [Ca^2+]i imaging experiments. […]
# (§2) To assess the effect of bicyclic labdane diterpenes on calcium transport via TRP channels, larixol and larixol acetate was added to cell lines from example 1. Blocking of the respective TRP channel was determined by determining increases in [Ca^2+]i in suspensions. To activate the TRP channels, an activator of the respective channel was added, and changes in fluorescence intensity of intracellularly loaded fluo-4 was determined with a multiwell plate reader device (Polarstar Omega, BMG Labtech). For HEKrTRPV1 cells, assessment of activation was performed by monitoring the intracellular acidification, which results in fluorescence loss of co-expressed YFP. […]
# rat TRPV1 = target: T2, rat TRPV1 (Rattus norvegicus, UniProt O35433); test: Specificity test in HEKrTRPV1 cells (intracellular acidification, YFP fluorescence loss); assay type: cell-based; conditions: activator 2 μM capsaicin; FIG. 1
# T2 construct: expressed in transfected cells; host or cells: HEK293 (line rTRPV1)
# Description: as §1, §2
# human TRPM8 = target: T3, human TRPM8 (Homo sapiens, UniProt Q7Z2W7); test: Specificity test, calcium influx in hTRPM8 HEK293 cells; assay type: cell-based; conditions: FIG. 1
# T3 construct: expressed in transfected cells; host or cells: HEK293 (line hTRPM8)
# Description: as §1, §2
# human TRPM2 = target: T4, human TRPM2 (Homo sapiens, UniProt O94759); test: Specificity test, calcium influx in hTRPM2 HEK293 cells; assay type: cell-based; conditions: activator 1 mM H2O2; FIG. 1
# T4 construct: expressed in transfected cells; host or cells: HEK293 (line hTRPM2)
# Description: as §1, §2
# human TRPM3 = target: T5, human TRPM3 (Homo sapiens, UniProt Q9HCF6); test: Specificity test, calcium influx in hTRPM3 HEK293 cells; assay type: cell-based; conditions: FIG. 1
# T5 construct: expressed in transfected cells; host or cells: HEK293 (line hTRPM3)
# Description: as §1, §2
# other TRP channels = test: Specificity tests in cell lines overexpressing other TRP channels; assay type: cell-based; conditions: FIG. 1
# Description: as §1, §2
# TRPC6 [2] = target: T1, TRPC6; test: Electrophysiological whole-cell recordings of TRPC6-mediated current; assay type: cell-based
# Description: FIG. 2 Larixol acetate acts from the outside of the cells. A: Electrophysiological whole-cell recordings were performed to determine the TRPC6-mediated current upon direct stimulation with 50 μM OAG or by activating heterotrimeric G-proteins with intracellularly applied AlF4 (50 μM), to trigger phospholipase C activation, resulting in the formation of endogenous diacylglycerols. To expose the cytosolic side of the channel protein to larixol acetate, larixol acetate was added to the intracellular solution (hatched bars and filled bars). Control solutions without larixol acetate (open bars) were measured in parallel.
# TRPC6-expressing cells were seeded on glass coverslips, mounted onto the stage of an inverted microscope, and contacted with a borosilicate glass pipet filled with an intracellular solution. After reaching a gigaohm seal, the whole-cell configuration was obtained by gently applying a negative pressure at the pipet. Whole-cell currents were measured in the voltage clamped mode with a holding potential of −60 mV, and normalized for the cell size by dividing current amplitudes by the cellular capacitance (pA/pF). TRPC6 was activated either by adding OAG to the bath solution or by including 50 μM AlF4^− in the pipet solution.
# In some experiments, the pipet solution was additionally supplemented with 1 μM larixol acetate to apply the modulator intracellularly (FIG. 2A, “inside”).
# HEK293 cells = test: Propidium iodide exclusion cytotoxicity assay; assay type: cell-based, human; conditions: concentrations up to 10 μM, 24 h incubation
# Description: FIG. 3 Larixol and larixol acetate to not show a cytotoxic effect on HEK293 cells. The cellular integrity was determined by exclusion of the DNA-binding fluorescent dye propidium iodide (PI).
# To assess possible cytotoxic effects of the larixol and larixol acetate, a propidium iodide exclusion assay was performed. Cells were grown in 24 well plates for 18 h and then incubated with the indicated compounds for another 24 h (FIG. 3). Propidium iodide (2 μg/ml, Invitrogen) was added, and the fluorescence (excitation at 544 nm and detection at 620 nm) was followed. To obtain a maximum reference value, 0.2% Triton X-100 was added to some samples prior to propidium iodide injection. The following controls were tested: • negative controls: HBS buffer (“control”), or 0.1% DMSO in HBS buffer, added to the growth medium in the same volume as for 10 μM larixol (“0.1% DMSO”). • positive controls: 2 μm staurosporine, 50 μm digitonin
# [3] = tested on: hypoxia-induced pulmonary vasoconstriction (HPV); test: Hypoxia-induced pulmonary vasoconstriction (HPV) in isolated perfused mouse lungs; assay type: in vivo; conditions: 5 μM in perfusion solution; isolated perfused C57BL/6 mouse lungs; 1% O2
# Description: FIG. 4 Inhibition of hypoxia-induced pulmonary vasoconstriction (HPV) by larixol acetate.
# To assess whether the TRPC6 blocking action of larixol acetate is potent to prevent HPV, larixol acetate was supplied in an induced mouse model of HPV.
# Anesthetized, male adult C57BL/6 mice were subjected to tracheostomy, followed by volume-controlled normoxic ventilation. Midsternal thoracotomy was performed, and two cannulas (1 mm inner diameter) were inserted into the pulmonary artery and left atrium, respectively. Lungs were then perfused at a constant flow at 37° C. with a Hanks' Balanced Salt Solution (Sigma-Aldrich) containing 5% bovine serum albumin (Sigma-Aldrich) and 5% dextran (Sigma-Aldrich) at pH of 7.4. Indomethacin (30 μM) and N^G-nitro-L-arginine methylester (1 mM) were added to the perfusate to inhibit endogenous prostaglandin and nitric oxide synthesis.
# lung edema formation = test: Ischemia-reperfusion-associated lung edema formation, rabbit lung transplantation model; assay type: in vivo; conditions: 5 μM in Perfadex and Tyrode solutions, explanted rabbit lungs
# Description: FIG. 5 Inhibition of ischemia-reperfusion-associated lung edema formation by larixol acetate. Rabbit lungs were explanted and extracorporally perfused with Perfadex solution and ventilated under oxygenized conditions (open symbols) or under hypoxic conditions (filled symbols). Lungs were then placed on ice for 2 h, and reperfused for 90 min with tyrode solution. Upper panel: control experiments without larixol acetate, lower panel: similar experiments, but with Perfadex® and tyrode solutions that were supplemented with 5 μM larixol acetate. Increases in the lung wet weight indicate edema formation. Data represent means and S.E.M. (Standard error of the mean) of 6 individual experiments for each treatment group.
# To assess whether larixol acetate mediated TRPC6 block can prevent endothelial dysfunction, the effect of larixol acetate was tested on lung edema formation in a rabbit lung transplantation model.
# New Zealand white rabbits were anesthetized and subjected to tracheostomy. Animals were mechanically ventilated with room air (40 breaths min^−1) The thorax was opened by midline sternotomy, pulmonary arteries and the left atrium were cannulated, the heart-lung-block was excised and transferred to a thermostatted artificial thorax chamber. […] The wet weight of the lungs was recorded during the whole procedure. […]
# T3 sequence (Q7Z2W7 whole entry): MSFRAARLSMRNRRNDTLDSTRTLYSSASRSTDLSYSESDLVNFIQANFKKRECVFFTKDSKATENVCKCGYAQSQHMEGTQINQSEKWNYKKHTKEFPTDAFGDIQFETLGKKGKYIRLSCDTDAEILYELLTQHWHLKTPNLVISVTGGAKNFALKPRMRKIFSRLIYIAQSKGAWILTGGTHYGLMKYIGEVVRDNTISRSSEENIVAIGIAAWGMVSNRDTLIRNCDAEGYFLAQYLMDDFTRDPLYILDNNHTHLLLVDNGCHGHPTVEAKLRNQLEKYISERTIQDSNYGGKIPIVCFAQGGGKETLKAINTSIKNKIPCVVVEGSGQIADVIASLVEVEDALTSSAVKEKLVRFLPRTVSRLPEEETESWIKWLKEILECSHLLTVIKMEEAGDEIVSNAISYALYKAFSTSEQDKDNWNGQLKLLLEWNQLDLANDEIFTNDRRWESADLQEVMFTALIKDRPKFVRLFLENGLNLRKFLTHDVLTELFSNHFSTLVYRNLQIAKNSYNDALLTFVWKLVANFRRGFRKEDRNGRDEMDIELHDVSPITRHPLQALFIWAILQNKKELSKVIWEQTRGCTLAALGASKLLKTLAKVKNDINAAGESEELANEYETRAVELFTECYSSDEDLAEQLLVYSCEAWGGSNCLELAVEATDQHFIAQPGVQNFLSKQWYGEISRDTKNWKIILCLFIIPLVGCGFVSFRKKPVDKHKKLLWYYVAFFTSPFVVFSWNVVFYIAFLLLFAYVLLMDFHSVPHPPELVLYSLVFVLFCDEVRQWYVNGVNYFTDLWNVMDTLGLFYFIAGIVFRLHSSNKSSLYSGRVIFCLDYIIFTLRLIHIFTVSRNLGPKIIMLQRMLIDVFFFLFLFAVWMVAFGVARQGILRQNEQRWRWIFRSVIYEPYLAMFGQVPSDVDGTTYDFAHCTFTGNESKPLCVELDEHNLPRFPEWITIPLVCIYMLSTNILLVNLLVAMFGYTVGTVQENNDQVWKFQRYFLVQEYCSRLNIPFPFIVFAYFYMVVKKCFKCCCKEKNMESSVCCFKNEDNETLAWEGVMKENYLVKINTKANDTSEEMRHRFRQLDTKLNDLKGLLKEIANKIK
# T2 sequence (O35433 whole entry): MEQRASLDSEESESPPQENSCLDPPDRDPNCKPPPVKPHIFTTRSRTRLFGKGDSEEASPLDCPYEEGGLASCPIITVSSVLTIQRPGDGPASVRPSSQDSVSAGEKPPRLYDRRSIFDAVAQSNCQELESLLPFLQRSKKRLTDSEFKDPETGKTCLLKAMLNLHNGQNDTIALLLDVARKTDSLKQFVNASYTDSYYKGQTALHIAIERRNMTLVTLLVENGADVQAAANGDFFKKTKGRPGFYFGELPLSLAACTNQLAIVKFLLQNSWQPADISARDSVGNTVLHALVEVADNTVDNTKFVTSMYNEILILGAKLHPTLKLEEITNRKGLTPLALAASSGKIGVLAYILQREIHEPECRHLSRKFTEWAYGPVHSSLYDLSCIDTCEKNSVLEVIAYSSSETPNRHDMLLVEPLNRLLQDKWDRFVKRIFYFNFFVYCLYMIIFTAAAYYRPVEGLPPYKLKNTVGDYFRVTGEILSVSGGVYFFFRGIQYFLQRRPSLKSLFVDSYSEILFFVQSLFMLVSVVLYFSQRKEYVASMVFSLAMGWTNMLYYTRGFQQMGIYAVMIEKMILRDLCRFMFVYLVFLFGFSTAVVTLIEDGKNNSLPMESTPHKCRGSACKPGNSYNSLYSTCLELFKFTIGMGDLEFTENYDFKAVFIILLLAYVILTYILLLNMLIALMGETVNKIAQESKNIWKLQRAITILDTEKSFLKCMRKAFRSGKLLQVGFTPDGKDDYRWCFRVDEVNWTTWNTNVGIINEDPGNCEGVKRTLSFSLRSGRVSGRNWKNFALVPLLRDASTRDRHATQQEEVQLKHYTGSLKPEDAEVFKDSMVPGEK
# T4 sequence (O94759 whole entry): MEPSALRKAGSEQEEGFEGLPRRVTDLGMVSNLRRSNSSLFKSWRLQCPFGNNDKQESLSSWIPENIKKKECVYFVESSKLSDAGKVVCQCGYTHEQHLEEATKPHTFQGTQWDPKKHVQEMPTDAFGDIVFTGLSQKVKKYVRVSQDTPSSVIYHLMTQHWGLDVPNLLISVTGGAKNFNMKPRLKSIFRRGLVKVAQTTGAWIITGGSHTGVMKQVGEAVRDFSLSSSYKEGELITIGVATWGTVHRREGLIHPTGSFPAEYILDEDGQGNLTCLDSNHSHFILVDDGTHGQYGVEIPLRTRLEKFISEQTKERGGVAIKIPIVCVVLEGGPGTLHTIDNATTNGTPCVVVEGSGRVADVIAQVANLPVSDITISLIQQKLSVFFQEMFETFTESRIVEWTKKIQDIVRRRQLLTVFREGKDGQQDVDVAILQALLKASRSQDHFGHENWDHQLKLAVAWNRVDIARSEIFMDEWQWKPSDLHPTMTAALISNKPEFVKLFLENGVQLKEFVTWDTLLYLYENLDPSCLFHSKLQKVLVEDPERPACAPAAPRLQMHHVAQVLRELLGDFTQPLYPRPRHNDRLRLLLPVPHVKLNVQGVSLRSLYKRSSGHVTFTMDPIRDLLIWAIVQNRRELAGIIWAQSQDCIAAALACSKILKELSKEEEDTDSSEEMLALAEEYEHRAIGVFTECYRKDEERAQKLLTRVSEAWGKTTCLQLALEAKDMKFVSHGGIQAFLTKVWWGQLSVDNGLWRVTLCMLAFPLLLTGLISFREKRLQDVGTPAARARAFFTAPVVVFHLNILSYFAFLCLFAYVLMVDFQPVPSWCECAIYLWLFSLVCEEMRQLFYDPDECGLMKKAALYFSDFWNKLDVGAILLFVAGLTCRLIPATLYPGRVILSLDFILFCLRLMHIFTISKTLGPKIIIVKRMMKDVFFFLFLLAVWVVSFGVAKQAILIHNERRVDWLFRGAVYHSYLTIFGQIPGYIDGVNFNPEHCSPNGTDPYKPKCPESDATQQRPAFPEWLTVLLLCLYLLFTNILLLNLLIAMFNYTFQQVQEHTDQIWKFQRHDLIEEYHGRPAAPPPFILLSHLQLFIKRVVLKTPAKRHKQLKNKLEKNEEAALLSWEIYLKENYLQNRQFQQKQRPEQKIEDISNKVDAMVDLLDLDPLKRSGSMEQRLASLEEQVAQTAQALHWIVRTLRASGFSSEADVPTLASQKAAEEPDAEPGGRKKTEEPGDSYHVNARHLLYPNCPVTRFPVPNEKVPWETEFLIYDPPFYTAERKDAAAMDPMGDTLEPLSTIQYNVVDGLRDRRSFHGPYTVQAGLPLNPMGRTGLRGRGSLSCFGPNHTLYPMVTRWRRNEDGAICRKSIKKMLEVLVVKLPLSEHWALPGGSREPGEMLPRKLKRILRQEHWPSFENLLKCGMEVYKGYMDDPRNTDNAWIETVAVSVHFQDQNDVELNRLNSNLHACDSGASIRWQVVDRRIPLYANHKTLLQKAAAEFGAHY
Compound,inhibition of calcium influx via TRPC6 (TRPC6 [1]),effect on TRPV1 (rat TRPV1),effect on TRPM8 (human TRPM8),effect on TRPM2 (human TRPM2),effect on TRPM3 (human TRPM3),inhibition of other TRP channels (other TRP channels),"suppression of OAG- or AlF4-induced TRPC6 activation, intracellular exposure (inside, pipet solution) (TRPC6 [2]; 1 μM in pipet solution)","block of TRPC6 whole-cell current, blocker applied via the bath solution (outside) (TRPC6 [2]; 1 μM, OAG or AlF4- activation, holding potential -60 mV)",cytotoxic effect (propidium iodide exclusion) (HEK293 cells),hypoxia-induced increase in pulmonary artery pressure (PAP) [3],increase in lung wet weight (edema formation) under hypoxic treatment (lung edema formation)
C=C[C@@](C)(O)CC[C@H]1C(=C)C[C@H](O)[C@H]2C(C)(C)CCC[C@]12C [larixol],selectively inhibit calcium influx via TRPC6,not affected,not affected,not affected,not affected,"not, or only poorly, inhibited",–,–,–,–,–
larixol acetate,selectively inhibit calcium influx via TRPC6,not affected,not affected,not affected,not affected,"not, or only poorly, inhibited",not sufficient to suppress,efficient block,no cytotoxic effect,completely abrogated,prevented the increase in lung wet weight
